Activity calls are given as the source filed them. The calls are words filed in the database; no cut-off is given here.
Experiments:
[1] = molecular target: T1, Protein deacetylase HDAC6 (Homo sapiens) (UniProt Q9UBN7); assay: Inhibition of human HDAC6 at 330 uM by HDAC-Glo1/2 luminescent assay relative to control
T1 sequence (whole entry): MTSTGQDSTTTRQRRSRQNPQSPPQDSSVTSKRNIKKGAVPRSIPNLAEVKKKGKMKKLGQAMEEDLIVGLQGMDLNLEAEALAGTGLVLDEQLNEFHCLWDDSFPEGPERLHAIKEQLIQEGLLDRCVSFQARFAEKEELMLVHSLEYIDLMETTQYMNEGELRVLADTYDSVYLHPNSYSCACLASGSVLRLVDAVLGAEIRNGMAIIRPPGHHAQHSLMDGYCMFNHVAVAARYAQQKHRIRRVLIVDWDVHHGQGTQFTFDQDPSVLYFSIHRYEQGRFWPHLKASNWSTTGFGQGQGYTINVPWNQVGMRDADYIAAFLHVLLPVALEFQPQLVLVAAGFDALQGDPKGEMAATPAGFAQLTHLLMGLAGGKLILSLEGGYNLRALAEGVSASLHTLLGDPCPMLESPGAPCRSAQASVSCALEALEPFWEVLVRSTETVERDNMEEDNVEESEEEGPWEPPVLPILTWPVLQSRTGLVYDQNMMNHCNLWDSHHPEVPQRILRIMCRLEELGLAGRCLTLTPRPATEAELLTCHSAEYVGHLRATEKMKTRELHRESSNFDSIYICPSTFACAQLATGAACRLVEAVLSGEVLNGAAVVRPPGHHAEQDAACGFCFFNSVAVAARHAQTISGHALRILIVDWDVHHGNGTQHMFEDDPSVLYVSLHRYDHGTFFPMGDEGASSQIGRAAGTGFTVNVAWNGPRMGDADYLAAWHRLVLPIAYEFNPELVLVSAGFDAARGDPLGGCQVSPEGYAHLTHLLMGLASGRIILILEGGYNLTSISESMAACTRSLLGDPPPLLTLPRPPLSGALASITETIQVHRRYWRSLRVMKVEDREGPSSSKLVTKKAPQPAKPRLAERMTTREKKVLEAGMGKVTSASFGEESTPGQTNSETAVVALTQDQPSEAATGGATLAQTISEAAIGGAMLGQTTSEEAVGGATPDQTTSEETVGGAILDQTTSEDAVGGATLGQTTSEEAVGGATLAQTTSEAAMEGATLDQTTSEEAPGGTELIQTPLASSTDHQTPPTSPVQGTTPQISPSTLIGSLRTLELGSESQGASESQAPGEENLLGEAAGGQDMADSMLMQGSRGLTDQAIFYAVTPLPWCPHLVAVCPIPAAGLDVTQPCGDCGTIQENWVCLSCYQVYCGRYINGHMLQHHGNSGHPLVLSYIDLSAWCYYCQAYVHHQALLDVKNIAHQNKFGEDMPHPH

[2] = molecular target: Histone deacetylase 9 (Homo sapiens) (UniProt Q9UKV0); assay: Inhibition of human HDAC9 at 330 uM by HDAC-Glo1/2 luminescent assay
Chain of Histone deacetylase 9 (Homo sapiens) (Q9UKV0 whole entry): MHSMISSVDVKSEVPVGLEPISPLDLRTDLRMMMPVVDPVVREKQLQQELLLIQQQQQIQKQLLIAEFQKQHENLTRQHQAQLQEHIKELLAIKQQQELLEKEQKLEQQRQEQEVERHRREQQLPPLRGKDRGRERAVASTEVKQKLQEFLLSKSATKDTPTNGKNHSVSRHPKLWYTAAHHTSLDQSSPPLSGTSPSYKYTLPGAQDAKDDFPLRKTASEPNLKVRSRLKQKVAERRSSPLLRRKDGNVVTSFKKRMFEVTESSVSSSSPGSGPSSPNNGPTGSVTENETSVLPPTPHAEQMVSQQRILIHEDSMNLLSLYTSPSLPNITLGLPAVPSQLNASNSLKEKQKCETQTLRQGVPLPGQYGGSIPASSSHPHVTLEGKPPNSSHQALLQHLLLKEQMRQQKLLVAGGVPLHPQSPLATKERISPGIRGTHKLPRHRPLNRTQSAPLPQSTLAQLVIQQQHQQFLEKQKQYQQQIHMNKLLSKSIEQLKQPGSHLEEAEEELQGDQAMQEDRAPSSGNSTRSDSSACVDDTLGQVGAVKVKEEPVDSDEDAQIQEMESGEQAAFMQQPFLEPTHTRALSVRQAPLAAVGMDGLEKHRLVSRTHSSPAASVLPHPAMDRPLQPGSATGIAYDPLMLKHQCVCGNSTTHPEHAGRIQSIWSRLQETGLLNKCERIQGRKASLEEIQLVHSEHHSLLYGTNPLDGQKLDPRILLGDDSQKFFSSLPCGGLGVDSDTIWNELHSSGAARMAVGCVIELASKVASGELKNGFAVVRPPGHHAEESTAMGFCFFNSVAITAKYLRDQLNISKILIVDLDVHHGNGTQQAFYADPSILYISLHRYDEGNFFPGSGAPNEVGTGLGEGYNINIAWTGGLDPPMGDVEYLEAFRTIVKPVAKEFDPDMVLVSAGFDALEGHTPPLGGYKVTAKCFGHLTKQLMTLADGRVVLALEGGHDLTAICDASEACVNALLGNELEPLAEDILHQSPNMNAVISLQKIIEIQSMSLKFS

[3] = (§1) Inhibition of class 1 HDAC in mouse A9 cells after 30 mins by luminescent assay; type: cell-based
[4] = tested on: A9; assay: as §1; type: cell-based
[5] = (§2) Inhibition of class 2 HDAC in mouse A9 cells after 30 mins by luminescent assay; type: cell-based
[6] = tested on: A9; assay: as §2; type: cell-based

Structure (SMILES): COC(=O)C(Cc1ccc(OCC=C(C)C)cc1)N(O)C(=O)/C(C)=N/O (stereo unspecified)
- inhibition [1]: 69%
- inhibition [2]: inactive

Structure (SMILES): CC(C)=CCOc1ccc(C/C(=N\O)C(=O)NO)cc1
- IC50 [3]: 7 µM
- inhibition [4]: Dose-dependent effect
- IC50 [5]: 7 µM
- inhibition [6]: Dose-dependent effect

Source: ChEMBL document CHEMBL4130611, “Serpulanines A to C, N-Oxidized Tyrosine Derivatives Isolated from the Sri Lankan Fungus Serpula sp.: Structure Elucidation, Synthesis, and Histone Deacetylase Inhibition” (J Nat Prod, 2018)
